Experimental data: paper PMC10009750, “Development of Selective ADAMTS-5 Peptide Substrates to Monitor Proteinase Activity” (Journal of Medicinal Chemistry, 2023)
Non-standard residues stand in square brackets, D forms with d. No end group written: not given here. Tyr(3-NO2) = N[C@@H](Cc1ccc(O)c([N+](=O)[O-])c1)C(=O)O; 2Abz = Nc1ccccc1C(=O)O

What was measured:
Assay type in all cases: biochemical
TS4-4 (ADAMTS-4) = target: T1, TS4-4 (ADAMTS-4) (Homo sapiens, UniProt O75173); test: Selectivity studies: cleavage of FRET peptide substrates by TS4-4; details: substrate 20 μM; for preference (selectivity) for TS5-5 over TS4-4: ratio of cleavage rates; for rate of cleavage by TS4-4: TS4-4 50–90 nM, mean of 3–4 independent experiments in triplicate
T1 construct: TS4-4, TS5-5 = catalytic and disintegrin domains; made in house; host or cells: HEK293 cells (previously transfected stocks)
T1 sequence (O75173 213-519 limits assumed): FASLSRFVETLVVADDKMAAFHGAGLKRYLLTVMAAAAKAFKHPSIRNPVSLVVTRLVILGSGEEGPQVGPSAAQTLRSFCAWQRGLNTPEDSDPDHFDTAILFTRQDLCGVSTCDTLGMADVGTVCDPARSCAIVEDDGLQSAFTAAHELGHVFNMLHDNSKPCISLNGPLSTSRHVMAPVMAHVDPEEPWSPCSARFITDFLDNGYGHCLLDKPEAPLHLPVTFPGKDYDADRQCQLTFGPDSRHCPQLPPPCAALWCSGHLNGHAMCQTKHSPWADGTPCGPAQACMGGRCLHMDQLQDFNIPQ
Method: (§1) All proteinase assays were performed at 37 °C in a SpectraMax M5 spectrophotometer (Molecular Devices, San Jose, USA) using a 96-well black microplate (Greiner bio-one, Stonehouse, UK) unless otherwise stated. […] N-TIMP-3 was purified as described previously[30] and CT-1746 was a gift from Dr. Yoshifumi Itoh (Kennedy Institute of Rheumatology, University of Oxford). All analyses were carried out using Prism 9 software (GraphPad, La Jolla, CA, USA).
(§2) Selectivity studies are described for Abz-TESE↓SRGAIY-Dpa-KK-NH2, the library parent peptide 3, and hit peptides 18–26. A solution of Abz-TESE↓SRGAIY-Dpa-KK-NH2 (22.22 μM) in freshly prepared TNC buffer with 0.005% (v/v) Brij-35 (90 μL) was added to a 96-well clear bottom microplate (Greiner bio-one, Stonehouse, UK) in triplicate. A substrate-only background control was also added in triplicate (90 μL). The resultant solutions were incubated at 37 °C (30 min). An ADAMTS or MMP proteinase was added to substrate wells (10 μL) to give a final proteinase concentration of either 50–90 nM (TS4-4), 25–200 nM (TS5-5), 5–10 nM (MMP-2ΔC), 30 nM (MMP-9ΔC), 92 nM (MMP-1), or 3 μM (MMP-3). TNC buffer with 0.005% (v/v) Brij-35 was added to substrate-only control wells (10 μL). The relative fluorescence intensity was measured at 37 °C for 1 h with readings every 20 s. Activity was read from underneath the microplate, which was covered with a low evaporation lid. […] For each ADAMTS and MMP proteinase, the assay was performed 2–4 times. […] Final rates were expressed as a percentage of substrate cleavage by TS5-5 (mean ± SEM) or in μM s^–1 μM^–1 of proteinase.

[1] = test system: MMP-9ΔC (catalytic domain of MMP-9); test: Selectivity studies: cleavage of FRET peptide substrates by MMP-9ΔC; details: ratio of cleavage rates, substrate 20 μM
Method: as §1, §2

[2] = test system: MMP-2ΔC (catalytic domain of MMP-2); test: Selectivity studies: cleavage of FRET peptide substrates by MMP-2ΔC; details: substrate 20 μM; for preference (selectivity) for TS5-5 over MMP-2ΔC: ratio of cleavage rates
Method: as §1, §2

[3] = TNC buffer with 0.005% (v/v) Brij-35, 37 °C
[4] = TNC buffer with 0.005% (v/v) Brij-35, 37 °C, mean of 2–8 independent experiments in triplicate

Substance: KY(NO2)TESESRGK(Abz)IYYKKG (K[Tyr(3-NO2)]TESESRGK(Abz)IYYKKG) [Compound 3]
- preference (selectivity) for TS5-5 over TS4-4 (TS4-4 (ADAMTS-4)): ~16 fold
- rate of cleavage by TS4-4 (TS4-4 (ADAMTS-4); [3]): 0.08–0.10 μM s^–1 μM^–1
- preference (selectivity) for TS5-5 over MMP-9ΔC [1]: ~2561 fold
- preference (selectivity) for TS5-5 over MMP-2ΔC [2]: ~10 fold

Substance: KY(NO2)SENESRGK(Abz)IYYKKG (K[Tyr(3-NO2)]SENESRGK(2Abz)IYYKKG) [Compound 26]
- preference (selectivity) for TS5-5 over TS4-4 (TS4-4 (ADAMTS-4)): ~13 fold
- rate of cleavage by TS4-4 (TS4-4 (ADAMTS-4); [3]): 0.08–0.10 μM s^–1 μM^–1
- preference (selectivity) for TS5-5 over MMP-9ΔC [1]: ~548 fold
- preference (selectivity) for TS5-5 over MMP-2ΔC [2]: ~8 fold

Substance: Abz-TESE↓SRGAIY-Dpa-KK-NH2 [current, ortho-aminobenzoyl(Abz)-TESE↓SRGAIY-N-3-[2,4-dinitrophenyl]-L-2,3-diaminopropionyl(Dpa)-KK-NH2, reference compound]
- preference (selectivity) for TS5-5 over TS4-4 (TS4-4 (ADAMTS-4)): ~5 fold
- cleavage by TS4-4 as a fraction (percentage) of TS5-5 cleavage of the current substrate (TS4-4 (ADAMTS-4); [4]): 22%
- rate of cleavage by TS4-4 (TS4-4 (ADAMTS-4); [3]): 0.090 μM s^–1 μM^–1
- preference (selectivity) for TS5-5 over MMP-9ΔC [1]: ~213 fold
- preference (selectivity) for TS5-5 over MMP-2ΔC [2]: ~0.7 fold
- cleavage by MMP-2ΔC as a fraction (percentage) of TS5-5 cleavage of the current substrate [2, 4]: 138%
